The structures appear in SMILES notation.

Assay [1] has as its target T1, DLK (Mus musculus, UniProt Q60700).
T1 construct: A full length cDNA of human MLK-3, MLK-2, or mouse DLK; expressed in transfected cells; host or cells: Cos7
T1 sequence (Q60700 1-888): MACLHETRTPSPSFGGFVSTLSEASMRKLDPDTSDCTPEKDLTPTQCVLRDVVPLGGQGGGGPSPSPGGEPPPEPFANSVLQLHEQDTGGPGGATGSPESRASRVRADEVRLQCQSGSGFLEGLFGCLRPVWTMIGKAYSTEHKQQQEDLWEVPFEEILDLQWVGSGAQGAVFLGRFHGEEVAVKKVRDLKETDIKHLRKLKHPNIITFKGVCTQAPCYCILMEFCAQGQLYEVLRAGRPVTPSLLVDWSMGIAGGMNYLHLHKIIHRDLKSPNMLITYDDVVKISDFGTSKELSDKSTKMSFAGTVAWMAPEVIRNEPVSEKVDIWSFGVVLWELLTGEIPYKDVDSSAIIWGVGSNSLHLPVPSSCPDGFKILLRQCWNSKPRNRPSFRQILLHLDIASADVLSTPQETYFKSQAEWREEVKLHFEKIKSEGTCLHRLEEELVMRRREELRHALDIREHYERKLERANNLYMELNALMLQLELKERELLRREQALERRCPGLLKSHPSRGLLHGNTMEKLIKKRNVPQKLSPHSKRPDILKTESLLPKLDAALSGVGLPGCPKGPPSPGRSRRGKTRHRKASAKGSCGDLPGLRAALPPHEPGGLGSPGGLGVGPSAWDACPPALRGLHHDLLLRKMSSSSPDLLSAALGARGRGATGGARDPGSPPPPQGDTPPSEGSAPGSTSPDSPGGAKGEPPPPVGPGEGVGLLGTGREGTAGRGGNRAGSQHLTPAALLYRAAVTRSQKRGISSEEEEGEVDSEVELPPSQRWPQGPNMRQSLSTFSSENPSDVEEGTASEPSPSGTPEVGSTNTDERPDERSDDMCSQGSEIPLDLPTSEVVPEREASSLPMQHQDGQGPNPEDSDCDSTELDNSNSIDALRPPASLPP
Kind of assay: JNK activity (immunoprecipitation/kinase assay) in Cos7 cells overexpressing DLK and HA-JNK1. The note with it: COS-7, 500 nM for 2 hr; replicate values in one cell; read-out: Cos-7 Cells DLK % JNK Inhib. @ 500nM. It is filed as cell-based. Here is the method: Cos7 cells were plated at 80% confluency and transfected with 2 ug each of cDNA constructs using lipofectamine as recommended by the provider (Gibco BRL, Gaithersburg, MD). A full length cDNA of human MLK-3, MLK-2, or mouse DLK or a partial human MLK-1 as described above, and a full length Hemagluttinin A-tagged human JNK1, kindly provided by J. Silvio Gutkind (NIH, Bethesda, MD), were subcloned into the pcDNA3 vector (Invitrogen, San Diego, CA). After a 48 hr transfection, the cells were treated with 0.025% DMSO or 500 nM of the indicated compounds for 2 hr followed by lysis in 0.4 ml Triton buffer (1% Triton X-100, 50 mM sodium chloride, 10 mM Tris (pH 7.6), 0.1 % bovine serum albumin, 30 uM sodium pyrophosphate, 50 mM sodium fluoride, 20 ug/ml aprotinin, 1 mM phenylmethylsulfonylfluoride, 1 mM sodium vanadate). JNK activity from the lysate was assayed by an immunoprecipitation/kinase assay as described below.
Lysate from Cos 7 cells was measured for protein concentration using the Micro BCA kit from Pierce (Rockford, IL) and equal amounts of protein were immunoprecipitated with the HA antibody for 1 hr at 4°C. […] The gel was dried and quantitation of radioactivity in the AP-1 substrate was performed on a Molecular Dynamics Phosphorimager (Sunnyvale, Ca.). […]

Assay [2] concerns the target T2, MLK-3 (Homo sapiens, UniProt Q16584).
T2 construct: A full length cDNA of human MLK-3, MLK-2, or mouse DLK; expressed in transfected cells; host or cells: Cos7
Description: JNK activity (immunoprecipitation/kinase assay) in Cos7 cells overexpressing MLK-3 and HA-JNK1. It is filed as cell-based. The note with it: COS-7, 500 nM for 2 hr; replicate values in one cell; read-out: Cos-7 Cells MLK-3 % JNK Inhib. @ 500nM. On the procedure: Cos7 cells were plated at 80% confluency and transfected with 2 ug each of cDNA constructs using lipofectamine as recommended by the provider (Gibco BRL, Gaithersburg, MD). A full length cDNA of human MLK-3, MLK-2, or mouse DLK or a partial human MLK-1 as described above, and a full length Hemagluttinin A-tagged human JNK1, kindly provided by J. Silvio Gutkind (NIH, Bethesda, MD), were subcloned into the pcDNA3 vector (Invitrogen, San Diego, CA). […] JNK activity from the lysate was assayed by an immunoprecipitation/kinase assay as described below.
Lysate from Cos 7 cells was measured for protein concentration using the Micro BCA kit from Pierce (Rockford, IL) and equal amounts of protein were immunoprecipitated with the HA antibody for 1 hr at 4°C. Immunoprecipitates were pelleted by centrifugation in a microfuge centrifuge for 20 sec, resuspended in Triton buffer, washed by centrifugation 2 more times, followed by a final wash in Kinase buffer (20 mM Hepes pH 7.4,20 mM MgCl2, 2 mM dithiothreitol, 0.1 mM sodium vanadate). The immunoprecipitate was resuspended in kinase buffer containing 1 µM ATP and 5 µCi [γ-^32P]ATP and substrate (1 µg/sample of AP-1 ) and incubated for 15 min at 30°C. […] Samples were heated to 80°C for 5 min and loaded onto 10% SDS-polyacrylamide gels. Proteins were separated by electrophoresis. The gel was dried and quantitation of radioactivity in the AP-1 substrate was performed on a Molecular Dynamics Phosphorimager (Sunnyvale, Ca.).
To determine whether inhibition of the JNK pathway regulated by these kinases correlated with neurotrophic compounds, we evaluated the effect of compounds on JNK activity in Cos7 cells overexpressing HA-JNK and MLK3. After a 48 hr transfection period, the cells were incubated with compounds at 500 nM for 2hr followed by cellular lysis. Lysate was immunoprecipitated and kinase activity measured as previously described. […]

T2 sequence (Q16584 whole entry): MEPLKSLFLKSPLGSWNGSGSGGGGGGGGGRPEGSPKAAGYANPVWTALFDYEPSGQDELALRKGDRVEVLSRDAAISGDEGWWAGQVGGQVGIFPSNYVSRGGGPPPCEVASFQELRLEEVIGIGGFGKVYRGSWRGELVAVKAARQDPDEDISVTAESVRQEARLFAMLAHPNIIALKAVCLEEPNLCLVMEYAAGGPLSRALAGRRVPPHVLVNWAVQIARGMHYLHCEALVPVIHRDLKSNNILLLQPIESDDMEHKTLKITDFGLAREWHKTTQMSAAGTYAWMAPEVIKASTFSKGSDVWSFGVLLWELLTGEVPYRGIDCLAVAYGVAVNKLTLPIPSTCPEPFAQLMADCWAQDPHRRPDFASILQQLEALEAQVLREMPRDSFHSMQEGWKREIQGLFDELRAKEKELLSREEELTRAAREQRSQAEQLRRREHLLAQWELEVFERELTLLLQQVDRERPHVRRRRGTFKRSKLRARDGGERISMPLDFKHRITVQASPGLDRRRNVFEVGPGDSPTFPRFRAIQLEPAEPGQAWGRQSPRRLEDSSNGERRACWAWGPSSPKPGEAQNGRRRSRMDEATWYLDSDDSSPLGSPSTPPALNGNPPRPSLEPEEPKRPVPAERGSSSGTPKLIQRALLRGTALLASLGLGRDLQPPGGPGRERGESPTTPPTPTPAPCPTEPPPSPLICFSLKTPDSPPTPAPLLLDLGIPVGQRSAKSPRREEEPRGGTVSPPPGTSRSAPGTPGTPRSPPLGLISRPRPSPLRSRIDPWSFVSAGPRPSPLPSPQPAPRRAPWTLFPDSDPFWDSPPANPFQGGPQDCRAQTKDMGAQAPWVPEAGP

With `COC(=O)C1(O)CC2OC1(C)n1c3ccccc3c3c4c(c5c6ccccc6n2c5c31)C(=O)NC4` (centres unmarked) [III^1], the inhibition at 0.5 µM turned out to be 63% in assay [1] and 99% in assay [2].

The record behind these values is patent EP1105728B1, “MODULATING MULTIPLE LINEAGE KINASE PROTEINS” (CEPHALON, INC., priority 1998, dated 2000).
